Five compounds from patent publication US9481673B2, “6-alkynyl-pyridine derivatives” (Boehringer Ingelheim International GmbH, priority 2014, dated 2016) can be followed below.

pIC50: −log10 of the molar value. Values after ≈ are worked out from the molar mass of the structure shown.

Data set [1] has as its target cIAP1 BIR3 (Homo sapiens (Human), UniProt Q13490). In words: cIAP1 BIR3 binding assay (DELFIA), BIR3-SMAC peptide interaction. The settings on record: (S)-isomers; BIR3 domain 10 nM, SMAC peptide 10 nM; read-out: cIAP1 BIR-3 IC50.
Data set [2] has as its target P450 2C19 (Homo sapiens (Human), UniProt P33261). Kind of data set: Cytochrome P450 isoenzyme inhibition assay, hydroxylation of Mephenytoin. The class given is in vitro ADME.
The target of data set [3] is P450 2C8 (Homo sapiens (Human), UniProt P10632). Kind of data set: Cytochrome P450 isoenzyme inhibition assay, deethylation of Amodiaquine. The class given is in vitro ADME.
The target in data set [4] is P450 2C9 (Homo sapiens (Human), UniProt P11712). Kind of data set: Cytochrome P450 isoenzyme inhibition assay, hydroxylation of Diclofenac. The class given is in vitro ADME.
Data set [5] has as its target P450 2D6 (Homo sapiens (Human), UniProt P10635). Kind of data set: Cytochrome P450 isoenzyme inhibition assay, demethylation of Dextromethorphan. The class given is in vitro ADME.
Data set [6] deals with P450 3A4 (Homo sapiens (Human), UniProt P08684). Kind of data set: Cytochrome P450 isoenzyme inhibition assay, hydroxylation of Midazolam. The data set is classed as in vitro ADME.
Data set [7] can be described thus: Solubility measurement (DMSO solution precipitation method). The class given is physicochemical. As to conditions: aqueous buffer, kinetic from dmso stock; for solubility at 24 h: McIlvaine buffer, measured examples from WO 2013/127729 (Table 1), pH 6.8.
Setting [8] is: (S)-isomers, human liver microsomes, 37° C.
The mark [9] stands for this setting: measured examples from WO 2013/127729 (Table 1).

As for `CN[C@@H](C)C(=O)Nc1ccc(-c2c(-c3ccnc(C)c3)nc3cc(C)ccn23)c(C#Cc2ccc3c(C)nccc3c2)n1` [(S)-2, (2S)-N-{5-[7-methyl-2-(2-methylpyridin-4-yl)imidazo[1,2-a]-pyridin-3-yl]-6-[2-(1-methylisoquinolin-6-yl)ethynyl]pyridin-2-yl}-2-(methylamino)-propanamide], the pIC50 in data set [1] is 9.00; in data set [2] (setting [8]), 5.72; in data set [3] (setting [8]), 6.05; in data set [4] (setting [8]) it was below 4.30; in data set [5] (setting [8]) it was below 4.30; in data set [6] (setting [8]) it was below 4.30. In addition, the solubility kinetic at 24 h in data set [7] ((S)-isomers, McIlvaine buffer pH 6.8, 24 h shaking at ambient temperature, read-out: Sol pH 6.8) came out at 8 µg/mL (≈ 14.1 µM).
For `CNC(C)C(=O)Nc1ccc(-c2c(-c3ccncc3)nc3cc(C)ccn23)c(C#Cc2ccc3c(ccc(=O)n3C)c2)n1` (centres unmarked) [Ex 81, reference compound], the negative logarithm of the IC50 (pIC50) in data set [2] (setting [9]) is 5.55; in data set [3] (setting [9]), 5.92; in data set [4] (setting [9]) it was 6.05; in data set [5] (setting [9]), 5.47; in data set [6] (setting [9]) it was 5.40. In data set [7], this compound displayed a solubility at 24 h of 8 µg/mL (≈ 14.1 µM).
Turning to `CNC(C)C(=O)Nc1ccc(-c2c(-c3ccncc3)nc3cc(C)ccn23)c(C#Cc2ccc(-c3ccon3)cc2)n1` (centres unmarked) [Ex 82, reference compound], the pIC50 in data set [2] (setting [9]) was 5.32; in data set [3] (setting [9]), 6.52; in data set [4] (setting [9]) it was 6.40; in data set [5] (setting [9]) it was 5.66; in data set [6] (setting [9]), 5.64.
For `CNC(C)C(=O)Nc1ccc(-c2c(-c3ccncc3)nc3cc(C)ccn23)c(C#Cc2ccc3c(c2)OCC(=O)N3C)n1` (centres unmarked) [Ex 94, reference compound] the same measures were 5.54, 5.31, 6.15, 5.48 and below 4.30.
With `CNC(C)C(=O)Nc1ccc(-c2c(-c3ccncc3)nc3cc(C)ccn23)c(C#Cc2ccccc2)n1` (centres unmarked) [Ex 185, reference compound], the pIC50 in data set [2] (setting [9]) was 4.80; in data set [3] (setting [9]), 5.77; in data set [4] (setting [9]), 5.32; in data set [5] (setting [9]) it was 5.57; in data set [6] (setting [9]), 5.52. This compound also registered a solubility at 24 h in data set [7] of 60 µg/mL (≈ 123 µM).
